Measured values as given in patent US7928107B2, “Quinazolines useful as modulators of ion channels” (Vertex Pharmaceuticals Incorporated, priority 2004, dated 2011).

Molecular target: NaV 1.8 channel (Homo sapiens, UniProt Q9Y5Y9)
Assay: Activity against NaV 1.8 channel (optical membrane potential assay)
Format: cell-based
Experimental: Compounds of the invention are useful as antagonists of voltage-gated sodium ion channels. Antagonist properties of test compounds were assessed as follows. Cells expressing the NaV of interest were placed into microtiter plates. After an incubation period, the cells were stained with fluorescent dyes sensitive to the transmembrane potential. The test compounds were added to the microtiter plate. The cells were stimulated with either a chemical or electrical means to evoke a NaV dependent membrane potential change from unblocked channels, which was detected and measured with trans-membrane potential-sensitive dyes. Antagonists were detected as a decreased membrane potential response to the stimulus. The optical membrane potential assay utilized voltage-sensitive FRET sensors described by Gonzalez and Tsien (See, Gonzalez, J. E. and R. Y. Tsien (1995) “Voltage sensing by fluorescence resonance energy transfer in single cells” Biophys J 69(4): 1272-80, and Gonzalez, J. E. and R. Y. Tsien (1997) “Improved indicators of cell membrane potential that use fluorescence resonance energy transfer” Chem Biol 4(4): 269-77) in combination with instrumentation for measuring fluorescence changes such as the Voltage/Ion Probe Reader (VIPR®) (See, Gonzalez, J. E., K. Oades, et al. (1999) “Cell-based assays and instrumentation for screening ion-channel targets” Drug Discov Today 4(9): 431-439).
24 hours before the assay on VIPR, CHO cells endogenously expressing a NaV1.2 type voltage-gated NaV are seeded in 96-well poly-lysine coated plates at 60,000 cells per well. Other subtypes are performed in an analogous mode in a cell line expressing the NaV of interest. • 1) On the day of the assay, medium is aspirated and cells are washed twice with 225 μL of Bath Solution #2 (BS#2). • 2) A 15 uM CC2-DMPE solution is prepared by mixing 5 mM coumarin stock solution with 10% Pluronic 127 1:1 and then dissolving the mix in the appropriate volume of BS#2. • 3) After bath solution is removed from the 96-well plates, the cells are loaded with 80 μL of the CC2-DMPE solution. Plates are incubated in the dark for 30 minutes at room temperature. • 4) While the cells are being stained with coumarin, a […] solution in BS#2 is prepared. In addition to DiSBAC2(3), this solution should contain 0.75 mM ABSCl and […] (prepared from 10 mM EtOH stock, Sigma #V-5754). • 5) After 30 minutes, CC2-DMPE is removed and the cells are washed twice with 225 μL of BS#2. As before, the residual volume should be 40 μL. • 6) Upon removing the bath, the cells are loaded with 80 μL of the DiSBAC2(3) solution, after which test compound, dissolved in DMSO, is added to achieve the desired test concentration to each well from the drug addition plate and mixed thoroughly. The volume in the well should be roughly 121 μL. The cells are then incubated for 20-30 minutes. • 7) Once the incubation is complete, the cells are ready to be assayed on VIPR® with a sodium add back protocol. 120 μL of Bath solution #1 is added to stimulate the NaV dependent depolarization. […] was used as an antagonist positive control for block of the NaV channel.
Data are analyzed and reported as normalized ratios of background-subtracted emission intensities measured in the 460 nm and 580 nm channels. Background intensities are then subtracted from each assay channel. Background intensities are obtained by measuring the emission intensities during the same time periods from identically treated assay wells in which there are no cells. The response as a function of time is then reported as the ratios obtained using the following formula: […]
The data is further reduced by calculating the initial (Ri) and final (Rf) ratios. These are the average ratio values during part or all of the pre-stimulation period, and during sample points during the stimulation period. The response to the stimulus R=Rf/Ri is then calculated. […]

NaV 1.8 channel, sequence (Q9Y5Y9 whole entry): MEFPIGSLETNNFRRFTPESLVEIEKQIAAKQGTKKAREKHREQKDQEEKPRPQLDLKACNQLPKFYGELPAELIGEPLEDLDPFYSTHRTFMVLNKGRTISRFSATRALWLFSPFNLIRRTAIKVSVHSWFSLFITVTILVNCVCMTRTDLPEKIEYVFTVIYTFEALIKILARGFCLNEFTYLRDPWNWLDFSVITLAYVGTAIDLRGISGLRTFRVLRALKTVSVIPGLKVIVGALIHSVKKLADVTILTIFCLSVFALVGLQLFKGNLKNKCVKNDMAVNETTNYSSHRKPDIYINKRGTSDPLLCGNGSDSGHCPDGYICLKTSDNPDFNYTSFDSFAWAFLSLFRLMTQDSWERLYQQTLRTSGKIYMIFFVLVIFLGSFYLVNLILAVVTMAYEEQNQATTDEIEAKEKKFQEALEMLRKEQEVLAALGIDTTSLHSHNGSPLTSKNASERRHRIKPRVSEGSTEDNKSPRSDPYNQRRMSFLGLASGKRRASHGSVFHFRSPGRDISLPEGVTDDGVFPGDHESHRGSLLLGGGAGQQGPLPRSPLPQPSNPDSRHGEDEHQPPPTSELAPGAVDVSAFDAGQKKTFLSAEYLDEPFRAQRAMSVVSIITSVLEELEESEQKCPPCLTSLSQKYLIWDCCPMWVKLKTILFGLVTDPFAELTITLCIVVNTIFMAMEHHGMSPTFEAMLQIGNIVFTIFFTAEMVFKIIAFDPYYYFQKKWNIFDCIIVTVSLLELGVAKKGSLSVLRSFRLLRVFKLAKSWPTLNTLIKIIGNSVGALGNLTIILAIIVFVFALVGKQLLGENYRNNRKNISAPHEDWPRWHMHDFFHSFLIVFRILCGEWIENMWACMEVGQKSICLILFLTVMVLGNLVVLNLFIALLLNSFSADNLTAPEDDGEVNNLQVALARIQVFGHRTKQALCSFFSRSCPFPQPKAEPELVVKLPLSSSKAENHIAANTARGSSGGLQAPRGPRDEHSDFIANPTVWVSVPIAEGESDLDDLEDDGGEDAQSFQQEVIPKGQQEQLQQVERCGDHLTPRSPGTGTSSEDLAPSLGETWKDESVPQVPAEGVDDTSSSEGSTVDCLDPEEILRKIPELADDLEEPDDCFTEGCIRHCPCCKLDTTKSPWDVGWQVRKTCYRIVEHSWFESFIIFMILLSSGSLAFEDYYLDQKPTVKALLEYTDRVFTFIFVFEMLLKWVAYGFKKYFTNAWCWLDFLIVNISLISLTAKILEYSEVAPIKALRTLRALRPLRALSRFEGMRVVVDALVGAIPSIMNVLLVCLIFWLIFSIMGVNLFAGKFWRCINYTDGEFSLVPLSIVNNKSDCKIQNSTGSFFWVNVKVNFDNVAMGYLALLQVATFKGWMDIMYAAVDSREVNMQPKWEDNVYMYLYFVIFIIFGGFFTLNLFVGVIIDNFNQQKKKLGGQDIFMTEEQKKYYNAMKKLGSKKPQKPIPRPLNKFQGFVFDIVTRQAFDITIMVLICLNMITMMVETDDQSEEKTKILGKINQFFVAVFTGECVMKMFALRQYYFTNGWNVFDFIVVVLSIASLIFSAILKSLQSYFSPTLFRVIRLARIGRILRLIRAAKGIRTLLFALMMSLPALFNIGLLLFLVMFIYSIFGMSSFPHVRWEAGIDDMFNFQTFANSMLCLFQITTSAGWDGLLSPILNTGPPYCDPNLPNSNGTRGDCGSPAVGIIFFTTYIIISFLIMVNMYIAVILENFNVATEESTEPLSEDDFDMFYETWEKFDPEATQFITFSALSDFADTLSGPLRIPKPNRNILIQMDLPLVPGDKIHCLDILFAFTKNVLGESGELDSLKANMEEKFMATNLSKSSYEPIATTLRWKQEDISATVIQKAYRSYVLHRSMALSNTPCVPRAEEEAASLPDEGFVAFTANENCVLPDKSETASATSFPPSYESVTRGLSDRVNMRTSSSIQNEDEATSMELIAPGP

SMILES	IC50 [µM]
Cc1ccc2c(N3CCC(NC(=O)[C@H]4CCCO4)C3)nc(-c3ccccc3O)nc2c1 (stereo in doubt) [Example 303, (2R)-Tetrahydro-N—((S)-1-(2-(2-hydroxyphenyl)-7-methylquinazolin-4-yl)pyrrolidin-3-yl)furan-2-carboxamide]	2 to 10
Cc1ccc2c(N3CCN(C(=O)[C@H](O)CC(C)(C)C)CC3)nc(-c3ccccc3O)nc2c1 [Example 101, (R)-2-Hydroxy-1-(4-(2-(2-hydroxyphenyl)-7-methylquinazolin-4-yl)piperazin-1-yl)-4,4-dimethylpentan-1-one]	< 2
CC(C)C[C@@H](O)C(=O)N1CCN(c2nc(-c3ccccc3O)nc3ccccc23)CC1 [Example 102, (R)-2-Hydroxy-1-(4-(2-(2-hydroxyphenyl)quinazolin-4-yl)piperazin-1-yl)-4-methylpentan-1-one]	2 to 10
Cc1ccc2c(N3CCN(C(=O)OCc4cccc5c4OCO5)CC3)nc(-c3ccccc3O)nc2c1 [Example 103, (Benzo[d][1,3]dioxol-7-yl)methyl 4-(2-(2-hydroxyphenyl)-7-methylquinazolin-4-yl)piperazine-1-carboxylate]	> 10
Cc1ccc2c(N3CCN(C(=O)[C@H](O)CC(=O)N(C)C)CC3)nc(-c3ccccc3O)nc2c1 [Example 104, (R)-3-Hydroxy-4-(4-(2-(2-hydroxyphenyl)-7-methylquinazolin-4-yl)piperazin-1-yl)-N,N-dimethyl-4-oxobutanamide]	> 10
Cc1ccc2c(N3CCN(C(=O)CC4CCOCC4)CC3)nc(-c3ccccc3O)nc2c1 [Example 105]	2 to 10
Cc1ccc2c(N3CCN(C(=O)[C@H](O)CC(C)C)[C@@H](CO)C3)nc(-c3ccccc3O)nc2c1 [Example 106, (R)-2-Hydroxy-1-((R)-2-(hydroxymethyl)-4-(2-(2-hydroxyphenyl)-7-methylquinazolin-4-yl)piperazin-1-yl)-4-methylpentan-1-one]	> 10
O=C(OCc1cccnc1)N1CCN(c2nc(-c3ccccc3O)nc3ccccc23)CC1 [Example 107, (Pyridin-3-yl)methyl 4-(2-(2-hydroxyphenyl)quinazolin-4-yl)piperazine-1-carboxylate]	2 to 10
Cc1ccc2c(N3CCN(C(=O)C(C)(C)O)CC3)nc(-c3ccccc3O)nc2c1 [Example 108, 2-Hydroxy-1-(4-(2-(2-hydroxyphenyl)-7-methylquinazolin-4-yl)piperazin-1-yl)-2-methylpropan-1-one]	2 to 10
C[C@H](O)CC(=O)N1CCN(c2nc(-c3ccccc3O)nc3ccccc23)CC1 [Example 109, (S)-3-Hydroxy-1-(4-(2-(2-hydroxyphenyl)quinazolin-4-yl)piperazin-1-yl)butan-1-one]	2 to 10
Cc1ccc2c(N3CCN(C(=O)C(C)(O)C(F)(F)F)CC3)nc(-c3ccccc3O)nc2c1 (stereo not shown) [Example 110, 2-(Trifluoromethyl)-2-hydroxy-1-(4-(2-(2-hydroxyphenyl)-7-methylquinazolin-4-yl)piperazin-1-yl)propan-1-one]	> 10
CC(C)(C)C[C@@H](O)C(=O)N1CCN(c2nc(-c3ccccc3O)nc3ccc(F)cc23)CC1 [Example 111, (R)-1-(4-(6-Fluoro-2-(2-hydroxyphenyl)quinazolin-4-yl)piperazin-1-yl)-2-hydroxy-4,4-dimethylpentan-1-one]	> 10
Cc1ccc2c(N3CCN(C(=O)C(O)CC(F)(F)F)CC3)nc(-c3ccccc3O)nc2c1 (stereo not shown) [Example 112, 4,4,4-Trifluoro-2-hydroxy-1-(4-(2-(2-hydroxyphenyl)-7-methylquinazolin-4-yl)piperazin-1-yl)butan-1-one]	> 10
Cc1ccc2c(N3CCN(C(=O)C(O)C(C)C)CC3)nc(-c3ccccc3O)nc2c1 (stereo not shown) [Example 113, 2-Hydroxy-1-(4-(2-(2-hydroxyphenyl)-7-methylquinazolin-4-yl)piperazin-1-yl)-3-methylbutan-1-one]	2 to 10
Cc1ccc2c(N3CCN(C(=O)OCc4ccncc4)CC3)nc(-c3c(O)cccc3F)nc2c1 [Example 114, (Pyridin-4-yl)methyl 4-(2-(2-fluoro-6-hydroxyphenyl)-7-methylquinazolin-4-yl)piperazine-1-carboxylate]	2 to 10
CCC(O)(CC)C(=O)N1CCN(c2nc(-c3ccccc3O)nc3ccccc23)CC1 [Example 115, 2-Ethyl-2-hydroxy-1-(4-(2-(2-hydroxyphenyl)quinazolin-4-yl)piperazin-1-yl)butan-1-one]	> 10
O=C(OCc1ccncc1)N1CCN(c2nc(-c3ccccc3O)nc3ccccc23)CC1 [Example 116, (Pyridin-4-yl)methyl 4-(2-(2-hydroxyphenyl)quinazolin-4-yl)piperazine-1-carboxylate]	2 to 10
O=C(O[C@H]1CCOC1)N1CCN(c2nc(-c3ccccc3O)nc3ccc(F)cc23)CC1 [Example 117, (S)-Tetrahydrofuran-3-yl 4-(6-fluoro-2-(2-hydroxyphenyl)quinazolin-4-yl)piperazine-1-carboxylate]	2 to 10
CC[C@@H](O)C(=O)N1CCN(c2nc(-c3ccccc3O)nc3ccccc23)CC1 [Example 118, (R)-2-Hydroxy-1-(4-(2-(2-hydroxyphenyl)quinazolin-4-yl)piperazin-1-yl)butan-1-one]	2 to 10
Cc1ccc2c(N3CCN(C(=O)O[C@H]4CCOC4)CC3CO)nc(-c3ccccc3O)nc2c1 (stereo partly drawn) [Example 119, (S)-3-Hydroxymethyl-4-[2-(2-hydroxyphenyl)-7-methyl-quinazolin-4-yl]-piperazine-1-carboxylic acid tetrahydro-furan-3-yl ester]	> 10
CCCCC(O)C(=O)N1CCN(c2nc(-c3ccccc3O)nc3cc(C)ccc23)CC1 (stereo not shown) [Example 120]	2 to 10
CCC(O)(CC)C(=O)N1CCN(c2nc(-c3ccccc3O)nc3cc(C)ccc23)CC1 [Example 122, 2-Ethyl-2-hydroxy-1-(4-(2-(2-hydroxyphenyl)-7-methylquinazolin-4-yl)piperazin-1-yl)butan-1-one]	2 to 10
CC(C)C[C@@H](O)C(=O)N1CCN(c2nc(-c3ccccc3O)nc3cc(C(=O)O)ccc23)CC1 [Example 123, 4-[4-((R)-2-Hydroxy-4-methyl-pentanoyl)-piperazin-1-yl]-2-(2-hydroxy-phenyl)-quinazoline-7-carboxylic acid]	> 10
CC[C@H](O)C(=O)N1CCN(c2nc(-c3ccccc3O)nc3cc(C)ccc23)CC1 [Example 124, (S)-2-Hydroxy-1-(4-(2-(2-hydroxyphenyl)-7-methylquinazolin-4-yl)piperazin-1-yl)butan-1-one]	> 10
Cc1ccc2c(N3CCN(C(=O)[C@H](O)CC(C)(C)F)CC3)nc(-c3ccccc3O)nc2c1 [Example 125, (R)-4-Fluoro-2-hydroxy-1-{4-[2-(2-hydroxy-phenyl)-7-methyl-quinazolin-4-yl]-piperazin-1-yl}-4-methyl-pentan-1-one]	> 10
Cc1ccc2c(N3CCN(C(=O)Oc4ccccc4)CC3CO)nc(-c3ccccc3O)nc2c1 (stereo not shown) [Example 126, 3-Hydroxymethyl-4-[2-(2-hydroxy-phenyl)-7-methyl-quinazolin-4-yl]-piperazine-1-carboxylic acid phenyl ester]	> 10
Cc1ccc2c(N3CCN(C(=O)CCC4CCCC4)CC3)nc(-c3ccccc3O)nc2c1 [Example 127, 3-Cyclopentyl-1-(4-(2-(2-hydroxyphenyl)-7-methylquinazolin-4-yl)piperazin-1-yl)propan-1-one]	< 2
O=C(CC1CCOCC1)N1CCN(c2nc(-c3ccccc3O)nc3ccc(F)cc23)CC1 [Example 128, 1-(4-(6-Fluoro-2-(2-hydroxyphenyl)quinazolin-4-yl)piperazin-1-yl)-2-(tetrahydro-2H-pyran-4-yl)ethanone]	2 to 10
